Source: PubChem BioAssay AID2740 (NMMLSC, 2010)
Active and inactive are the calls of the source.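 The calls were made as follows: active = compounds whose fitted half-maximal concentration for changing the GFP signal is at or below a set limit; inactive = the rest.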

test: TOR pathway RPL19A-GFP modulators, concentration series – cell-based, S. cerevisiae, flow cytometry, MLPCN hits, dose response (AID 2740);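 also: background is signal of the same compound in parental non-GFP s288c yeast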; conditions: S. cerevisiae RPL19A-GFP strain, flow cytometry fluorescence, 3 h; at 33 µM (top of the series)

Row | SMILES | GFP fluorescence, lower = active (kMESF (background-subtracted))
1 | Cc1[nH][nH]c(=O)c1C(c1ccc(-c2ccc(Cl)c(Cl)c2)o1)c1c(C)[nH][nH]c1=O | 43.4 (inactive)
2 | COc1ccc(CCNC2=C(Cl)C(=O)N(CCc3ccc(OC)c(OC)c3)C2=O)cc1OC | 42.6 (inactive)
3 | O=C1N(c2ccccc2C(F)(F)F)O[C@]1(c1ccccc1)C1CCCC1 | 36.6 (inactive)
4 | Nc1c(C(=O)c2cccs2)sc2nsc(SCCN3CCCCC3)c12 | 38.1 (inactive)
5 | COC(=O)CCC(=O)OC1(C)C(=O)C2=COC(c3ccc(OC)cc3)=CC2=C(Br)C1=O (configuration not stated) | 32.8 (inactive)
6 | O=C1N(c2ccccc2C(F)(F)F)O[C@@]1(c1ccccc1)C1CCCCC1 | 37.6 (inactive)
7 | O=C(/C=C/c1ccccc1[N+](=O)[O-])c1ccccc1Br | 44.1 (inactive)
8 | Cc1ccccc1OCC(=O)NNC(=S)NC(=O)c1ccco1 | 44.1 (inactive)
9 | Nc1nc2ncc(CNc3ccc(C(=O)N[C@@H](CCC(=O)O)C(=O)O)cc3)nc2c(=O)[nH]1 | 37 (inactive)
10 | CCOC(=O)CSC1=NC(=O)/C(=C\c2ccc(Cl)cc2)S1 | 31.9 (inactive)
11 | CCCCCn1c(=O)c(C(=O)Nc2nc3ccccc3[nH]2)c(O)c2ccccc21 | 43.6 (inactive)
12 | Cc1ccc(N=Nc2ccc(O)c3ncccc23)cc1 | 39.8 (inactive)
13 | O=C(Nc1ccc(O)cc1)C1CCCN1S(=O)(=O)c1ccc(F)cc1 (configuration not stated) | 45 (inactive)
14 | O=C(/C=C/Sc1ncn[nH]1)c1ccc(Cl)cc1 | 29 (inactive)
15 | O=C(Oc1cccc2cccnc12)c1ccc(Br)o1 | 44.1 (inactive)
16 | C=CCOc1ccccc1C(=O)/C=C1/C(=O)Nc2ccccc21 | 41.5 (inactive)
17 | Oc1ccc(Br)cc1/C=N/Nc1ccccn1 | 40.5 (inactive)
18 | CS(=O)(=O)c1sc(C#N)c2c1C(=O)CC(c1ccccc1)C2 (configuration not stated) | 38.5 (inactive)
19 | COc1cc(NC(=O)c2cccc(C)c2)ccc1NC(=O)c1cc2ccccc2o1 | 39.6 (inactive)
20 | CC(C)C(=O)NC(c1cccs1)c1cc([N+](=O)[O-])c2cccnc2c1O (configuration not stated) | 31.9 (inactive)
21 | N=C1/C(=C\c2coc3ccccc3c2=O)C(=O)N=C2SC(c3ccncc3)=NN12 | 25.5 (inactive)

Row | SMILES | GFP fluorescence, lower = active (kMESF (background-subtracted))
22 | CCc1ccc(OCC(=O)NNC(=S)NC(=O)C2CC2)c(Br)c1 | 45.8 (inactive)
23 | Cc1ccc(NC(=O)c2nc(S(=O)(=O)Cc3ccccc3)ncc2Cl)cc1 | 43 (inactive)
24 | Cc1cccc(OCCN2CSC(=S)N(C)C2)c1 | 40.5 (inactive)
25 | CCc1cccc2sc(N3CCN(C(=O)c4ccc([N+](=O)[O-])o4)CC3)nc12 | 11.8 (inactive)
26 | Cc1ccccc1N=Nc1ccc(O)c2ncccc12 | 36.9 (inactive)
27 | CCOC(=O)CSC1=NC(=O)/C(=C/c2ccc(Br)cc2)S1 | 38.5 (inactive)
28 | C=CCn1c(C)c(/C=C/c2cc[n+](C)cc2)c2ccccc21 | 52.8 (inactive)
29 | COc1cccc(C(=O)Nc2nnc(-c3ccc(Cl)cc3)o2)c1 | 35.5 (inactive)
30 | O=[N+]([O-])c1ccc(N=Nc2c(Cl)cc(O)cc2Cl)cc1 | 37.9 (inactive)
31 | CC(=O)OC[C@]12CC[C@H]3[C@@](C)(CC[C@H]4C(C)(C)CCC[C@]34C)[C@@H]1C[C@H](C1=CC(=O)O[C@@H]1OC(C)=O)O2 | 18.7 (inactive)
32 | CC1(c2ccccc2)ON(c2ccccc2C(F)(F)F)C1=O (configuration not stated) | 40 (inactive)
33 | O=C(Nc1nnc(-c2ccc(F)cc2)o1)c1cc(Cl)sc1Cl | 51.4 (inactive)
34 | COc1ccc([C@@]2(C(C)C)ON(c3ccccc3C(F)(F)F)C2=O)cc1 | 45.9 (inactive)
35 | COc1cccc2c(=O)c(C(=O)NCc3cccs3)c[nH]c12 | 40.5 (inactive)
36 | O=C(NC(=S)NNC(=O)c1cnccn1)c1ccc(F)cc1 | 31.9 (inactive)
37 | O=C1CC(c2ccccc2)=NN1c1nc(-c2ccccc2)cs1 | 19.4 (inactive)
38 | O=C(c1ccccc1)c1ccccc1N1C(=O)C=CC1=O | 26 (inactive)
39 | Nc1ccc2ccc3cccc[n+]3c2c1 | 45.9 (inactive)
40 | Cc1ccc(-c2nc(C)sc2CC(=O)Nc2nnc(C)s2)cc1 | 37.9 (inactive)
41 | O=C(NC(=S)NNC(=O)[C@H]1C[C@@H]1c1ccccc1)c1cccc(F)c1 | 45.1 (inactive)
42 | CC(=O)CSc1ncnc2c1cnn2-c1ccccc1 | 37.7 (inactive)

Row | SMILES | GFP fluorescence, lower = active (kMESF (background-subtracted))
43 | On1ccccc1=S | 38 (inactive)
44 | CC(C)[C@@]1(c2ccc(Cl)cc2)ON(c2ccccc2C(F)(F)F)C1=O | 39.1 (inactive)
45 | CCSc1nnc(NC(=O)c2ccccn2)s1 | 50 (inactive)
46 | O=C(COc1ccc(F)cc1Cl)Nc1nc(-c2ccccn2)cs1 | 35.8 (inactive)
47 | O=S(=O)(c1ccccc1)c1ccc(C(F)(F)F)cn1 | 45.7 (inactive)
48 | CC(=O)[C@]1(O)Cc2c(O)c3c(c(O)c2[C@@H](O[C@H]2C[C@H](N)[C@H](O)[C@H](C)O2)C1)C(=O)c1ccccc1C3=O | 42 (inactive)
49 | O=[N+]([O-])c1cc(O)c2ncccc2c1 | 45 (inactive)
50 | Fc1cccc(Nc2ncnc3c2cnn3-c2ccccc2)c1 | 35.1 (inactive)
51 | O=C1C(Cl)=C(Nc2ccccc2O)C(=O)N1c1ccccc1 | 43.6 (inactive)
52 | COc1cccc(/C=N/Nc2ncc(C(F)(F)F)cc2Cl)c1O | 38.7 (inactive)
53 | Cc1cc(=O)oc2cc(Oc3ccc([N+](=O)[O-])cc3C(F)(F)F)ccc12 | 44.2 (inactive)
54 | O=C(Oc1oc(-c2ccco2)nc1C=Nc1ccc(Cl)cc1)c1ccco1 | 52.3 (inactive)
55 | CCCc1nnc(NC(=O)c2c(O)c3cccc4c3n(c2=O)CCC4)s1 | 14.6 (inactive)
56 | O=C(NC(=S)NNC(=O)c1ccc(Cl)cc1Cl)c1cccnc1 | 18.7 (inactive)
57 | CC(C)(C)C(=O)NC(=S)NNC(=O)c1ccc(-c2ccccc2)cc1 | 40.7 (inactive)
58 | O=C1ON=C(c2ccccc2)/C1=C/c1ccco1 | 28.4 (inactive)
59 | O=C(NOC(=O)c1ccccc1)c1ccccc1 | 38.1 (inactive)
60 | CC(=O)Oc1cccc(N2C(=O)c3cccc4c([N+](=O)[O-])ccc(c34)C2=O)c1 | 39.5 (inactive)
61 | CCN(CC)c1ccc2cc(-c3nc(-c4ccc(OC)cc4)cs3)c(=O)oc2c1 | 40 (inactive)
62 | Cc1cccc(N=Nc2ccc(O)c3ncccc23)c1 | 33.3 (inactive)
63 | Cc1[nH]c(-c2ccccn2)nc(=S)c1Cl | 30.8 (inactive)

Row | SMILES | GFP fluorescence, lower = active (kMESF (background-subtracted))
64 | Cc1ccc(S(=O)(=O)c2ncccc2[N+](=O)[O-])cc1 | 47.4 (inactive)
65 | O=C1C=CC(=O)N1c1ccc(OC(F)F)cc1 | 14.7 (inactive)
66 | CCOC(=O)CS(=O)(=O)c1nc(-c2ccc(F)cc2)cc(C(F)(F)F)n1 | 46.7 (inactive)
67 | COc1ccc(C(=O)/C=C2/C(=O)Nc3ccccc32)cc1OC | 43.1 (inactive)
68 | CCCCc1ccc(NC(=O)CC(C)=O)cc1 | 47.2 (inactive)
69 | O=[N+]([O-])c1ccc(-c2cn3nc(-c4ccccc4)c(-c4ccccc4)nc3n2)cc1 | 48.8 (inactive)
70 | Oc1ccc(COCc2ccccc2)c2cccnc12 | 46.5 (inactive)
71 | O=c1oc2ccccc2c(O)c1[C@H]1c2ccc(O)cc2Oc2c1c(=O)oc1ccccc21 | 34.8 (inactive)
72 | Oc1c(CN2CCN(c3ccc(F)cc3)CC2)cc(Cl)c2cccnc12 | 40.4 (inactive)
73 | COc1ccccc1C(=O)NNC(=S)NC(=O)c1cccs1 | 43.5 (inactive)
74 | COC(=O)c1cc(N2C(=O)C3C(C2=O)C2(C)C=CC3(C)O2)ccc1Cl (configuration not stated) | 28.8 (inactive)
75 | Cc1ccc2[nH]cc(/C=C/c3cc[n+](C)cc3)c2c1 | 38.4 (inactive)
76 | Cc1ccc(C)c(/C=C/C(=O)c2ccccc(=O)c2O)c1 | 15.8 (inactive)
77 | CC(C)C[C@]1(c2ccccc2)ON(c2ccccc2C(F)(F)F)C1=O | 36.6 (inactive)
78 | Cc1ccc(C2=NN(S(C)(=O)=O)C(c3ccc4c(c3)OCO4)C2)cc1 (configuration not stated) | 44.8 (inactive)
79 | CCOc1ccc(C(Nc2cccnc2)c2cc(Cl)c3cccnc3c2O)cc1 (configuration not stated) | 28.3 (inactive)
80 | O=c1/c(=C/c2cccc3ccccc23)sc2ncnn12 | 50.3 (inactive)
81 | O=C(Nc1nc(-c2ccccn2)cs1)C1COc2ccccc2O1 (configuration not stated) | 21.1 (inactive)
82 | CCCOc1ccc(C(=O)NNC(=S)NC(=O)CC)cc1 | 50.5 (inactive)
